As usually defined, the pIC50 is the negative decadic logarithm of the IC50, by convention in mol/L.

Each structure is given as a SMILES string. pIC50: −log10 of the molar value.

Chain of human MGAT-2 (Q3SYC2 whole entry): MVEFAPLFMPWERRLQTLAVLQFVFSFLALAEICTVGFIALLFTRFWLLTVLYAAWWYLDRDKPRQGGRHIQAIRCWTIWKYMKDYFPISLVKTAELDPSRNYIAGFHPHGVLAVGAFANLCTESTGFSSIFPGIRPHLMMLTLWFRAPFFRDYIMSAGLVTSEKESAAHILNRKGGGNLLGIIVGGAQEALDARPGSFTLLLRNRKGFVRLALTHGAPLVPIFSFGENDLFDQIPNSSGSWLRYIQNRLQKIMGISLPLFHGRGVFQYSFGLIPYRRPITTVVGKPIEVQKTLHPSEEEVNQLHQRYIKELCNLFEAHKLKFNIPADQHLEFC

This assay addresses human MGAT-2 (Homo sapiens (Human), UniProt Q3SYC2). Nature of the assay: MGAT LCMS Assay (human MGAT2). It counts as biochemical. The note with it: human MGAT-2 membranes expressed in Sf9 cells; 100 μM 2-oleoylglycerol, 15 μM oleoyl-coenzyme A; LC/MS readout; read-out: h-MGAT LCMS IC50. The protocol: The MGAT enzyme reactions were performed in Corning FALCON® 96-well polypropylene plates, in a total volume of 60 μL of 50 mM potassium phosphate buffer pH 7.4, containing a final concentration of 100 μM 2-oleoylglycerol, 15 μM oleoyl-coenzyme A and […] human or mouse MGAT-2 or […] rat recombinant MGAT-2 membranes expressed in Sf9 cells. Assay plates were run through a fully automated robotics system and shaken for 5 seconds every minute for a total 10 minutes. The reactions were then quenched with 120 μL of ice cold methanol containing 1 μg/mL 1,2-distearoyl-rac-glycerol as the internal standard. Plates were shaken for 2 minutes and spun down to remove protein precipitation. After the spin, samples were transferred to LC/MS compatible PCR plates. For LC/MS analysis, a ThermoFisher Surveyor pump, utilizing a Waters SYMMETRY® C8, 50×2.1 mm column, was used for the chromatography of enzyme products. The buffer system consists of 0.1% formic acid in water with a mobile phase consisting 0.1% formic acid in methanol. The shallow gradient is 90-100% mobile phase in 0.2 min with a total run time of 2.3 min. The first 0.5 minutes of each injection was diverted to waste to eliminate the presence of Phosphate buffer in the enzymatic reaction. The column was run at 0.6 mL/min and a temperature of 65° C. Mass spectrometry analysis of the samples was performed on a ThermoFisher Quantum Triple quad utilizing APCI (+) as the mode of ionization. Data was acquired in Single Ion Monitoring (SIM) mode analyzing Diolein=m/z 603.6 (PRODUCT) and 1,2-distearoyl-rac-glycerol (IS)=m/z 607.6. The ratio of Diolein to internal standard (Peak Area Ratio) is utilized to calculate IC50 values.
The exemplified Examples disclosed below were tested in the MGAT2 in vitro assays described above and were found having MGAT2 inhibitory activity. Table 1 below lists human MGAT2 IC50 values measured for the following examples.
Regarding `O=C1N[C@@](c2ccc(OCCCC(F)(F)F)cc2F)(C(F)(F)F)CC(c2ccn(C3CC3)n2)=C1n1nn[nH]c1=O` [Example 7], the negative-log IC50 (pIC50) is 6.76.
For the compound `O=C1N[C@@](c2ccc(OCCCC(F)(F)F)cc2F)(C(F)(F)F)CC(c2ccn(CC3CC3)n2)=C1n1nn[nH]c1=O` [Example 14], the pIC50 was 8.30.
`O=C1N[C@@](c2ccc(OCCCC(F)(F)F)cc2F)(C(F)(F)F)CC(c2ccn(C3CCC3)n2)=C1n1nn[nH]c1=O` [Example 8]: the negative logarithm of the IC50 (pIC50) is 7.52.
Regarding `CC(C)Cn1ccc(C2=C(n3nn[nH]c3=O)C(=O)N[C@@](c3ccc(CCCCC(F)(F)F)cc3F)(C(F)(F)F)C2)n1` [Example 12], the pIC50 is 7.47.
Consider `CC(C)n1ccc(C2=C(n3nn[nH]c3=O)C(=O)N[C@@](c3ccc(CCCCC(F)(F)F)cc3F)(C(F)(F)F)C2)n1` [Example 10], for which the pIC50 is 7.44.
`Cc1ccc(C2=C(n3nn[nH]c3=O)C(=O)N[C@@](c3ccc(OCCCCCC(F)(F)F)cc3)(C(F)(F)F)C2)cc1` [Example 2]: the pIC50 was 8.30.
To `CC(C)n1ccc(C2=C(n3nn[nH]c3=O)C(=O)N[C@@](c3ccc(OCCCC(F)(F)F)cc3F)(C(F)(F)F)C2)n1` [Example 6] belongs 6.86; to `O=C1N[C@@](c2cnn(CCCCCCC(F)(F)F)c2)(C(F)(F)F)CC(c2ccc3c(c2)CCCC3)=C1n1nn[nH]c1=O` [Example 17], 8.30.
The figure for `COc1ccc(C2=C(n3nn[nH]c3=O)C(=O)N[C@@](c3ccc(OCCCC(F)(F)F)cc3)(C(F)(F)F)C2)cc1` [Example 3] is 6.47; for `CCc1ccc(C2=C(n3nn[nH]c3=O)C(=O)N[C@H](c3ccc(OCCCC(F)(F)F)cc3Cl)C2)s1` [Example 24] it is 7.44.
`CCn1ccc(C2=C(n3nn[nH]c3=O)C(=O)N[C@@](c3ccc(OCCCC(F)(F)F)cc3F)(C(F)(F)F)C2)n1` [Example 9]: the pIC50 was 6.97.
The figure for `COc1ccc(C2=C(n3nn[nH]c3=O)C(=O)N[C@@](c3ccc(OCCCCCC(F)(F)F)cc3)(C(F)(F)F)C2)cc1` [Example 5] is 7.15; for `O=C1N[C@@](c2ccc(CCCCC(F)(F)F)cc2F)(C(F)(F)F)CC(c2ccn(CC3CC3)n2)=C1n1nn[nH]c1=O` [Example 11] it is 8.05.
As for `O=C1N[C@@](c2ccc(OCCCCCC(F)(F)F)cc2)(C(F)(F)F)CC(c2ccc(OC(F)F)cc2)=C1n1nn[nH]c1=O` [Example 4], the pIC50 was 7.77.
Regarding `Cc1ccc(C2=C(n3nn[nH]c3=O)C(=O)N[C@@](c3ccc(OCCCC(F)(F)F)cc3)(C(F)(F)F)C2)cc1` [Example 1, (S)-3-(5-Oxo-4,5-dihydro-1H-tetrazol-1-yl)-4-(p-tolyl)-6-(4-(4,4,4-trifluorobutoxy)phenyl)-6-(trifluoromethyl)-5,6-dihydropyridin-2(1H)-one], the pIC50 was 7.57.
To `CC(=O)c1ccc(C2=C(n3nn[nH]c3=O)C(=O)N[C@@](c3ccc(OCCCC(F)(F)F)cc3)(C(F)(F)F)C2)s1` [Example 18] belongs 8.10.
Turning to `CC(O)c1ccc(C2=C(n3nn[nH]c3=O)C(=O)N[C@@](c3ccc(OCCCC(F)(F)F)cc3)(C(F)(F)F)C2)s1` (stereo partly shown) [Example 19], the pIC50 is 8.00.
For `CC(C)Cn1ccc(C2=C(n3nn[nH]c3=O)C(=O)N[C@@](c3ccc(OCCCC(F)(F)F)cc3F)(C(F)(F)F)C2)n1` [Example 15], the pIC50 is 6.84.
Take `O=C1N[C@@](c2ccc(OCCCC(F)(F)F)cc2F)(C(F)(F)F)CC(c2ccc(C(F)F)cc2)=C1n1nn[nH]c1=O` [Example 21]: the negative logarithm of the IC50 (pIC50) is 8.00.
For `CCn1ccc(C2=C(n3nn[nH]c3=O)C(=O)N[C@@](c3ccc(CCCCC(F)(F)F)cc3F)(C(F)(F)F)C2)n1` [Example 13], the pIC50 is 7.08.
With `CCc1ccc(C2=C(n3nn[nH]c3=O)C(=O)N[C@@](c3ccc(OCCCC(F)(F)F)cc3)(C(F)(F)F)C2)s1` [Example 23], the pIC50 was 7.22.
For `O=C1N[C@@](c2ccc(CCCCC(F)(F)F)cc2)(C(F)(F)F)CC(c2ccn(CC3CC3)n2)=C1n1nn[nH]c1=O` [Example 20], the pIC50 is 8.52.

For the origin of these results see US10093650B2, “Tetrazolone-substituted dihydropyridinone MGAT2 inhibitors” (BRISTOL-MYERS SQUIBB COMPANY, priority 2014, dated 2018).
